Laboratory results from US12679878B2, “CRF2 receptor agonists and their use in therapy” (SANOFI, priority 2020, dated 2026).
Starred links: 1 amine or outer side, 2 acyl side, 3 side chain; linkers in the order of their positions; H or OH if unused. Non-standard residues stand in square brackets, D forms with d. Residues, ends and D or L forms follow the SMILES beside them. Groups on a side chain read outwards from the residue. *: point of attachment. C18 diacid = O=C(O)CCCCCCCCCCCCCCCCC(=O)*; γGlu = O=C(O)[C@H](CCC(=O)[*:2])N[*:1]; AEEA = NCCOCCOCC(=O)O; Aib = CC(C)(N)C(=O)O

biological target: T1, human CRF2α receptor (Homo sapiens, UniProt Q13324); assay: cAMP agonism at human CRF2 α receptor in TeloHEAC cells (Example 7); type: cell-based; conditions: cAMP HTRF, TeloHEAC cells stably expressing human CRF2 α, 0% HSA; read-out: EC50 [nM], 0% HSA
T1 construct: expressed in transfected cells; host or cells: TeloHEAC
T1 sequence (Q13324 1-411): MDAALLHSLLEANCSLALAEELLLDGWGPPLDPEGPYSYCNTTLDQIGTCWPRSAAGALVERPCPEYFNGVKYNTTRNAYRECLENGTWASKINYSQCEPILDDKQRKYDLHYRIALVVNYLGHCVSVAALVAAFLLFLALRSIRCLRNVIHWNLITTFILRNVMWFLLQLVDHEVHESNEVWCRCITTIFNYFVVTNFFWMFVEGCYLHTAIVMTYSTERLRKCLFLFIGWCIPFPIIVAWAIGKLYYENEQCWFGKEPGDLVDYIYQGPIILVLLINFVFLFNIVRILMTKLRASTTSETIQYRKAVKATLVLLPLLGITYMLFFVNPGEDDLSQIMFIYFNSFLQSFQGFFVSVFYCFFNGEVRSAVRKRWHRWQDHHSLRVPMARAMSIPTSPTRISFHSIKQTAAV
Description: Agonism of compounds for human corticotropin-releasing factor 2α (CRF2 α receptor) was determined by functional assays measuring CAMP response of a TeloHEAC cell line stably expressing human CRF2 α receptor.
Cells were grown in a T175 culture flask placed at 37° C. to near confluence in medium (DMEM/10% FBS) and collected in 2 ml vials in cell culture medium containing 10% DMSO in a concentration of 10-50 million cells/ml. Each vial contained 1.8 ml cells. The vials were slowly frozen to −80° C. in isopropanol and then transferred in liquid nitrogen for storage. Prior to use, frozen cells were thawed quickly at 37° C. and washed (5 min at 900 rpm) with 20 ml cell buffer (1×HBSS; 20 mM HEPES; 0% or 0.1% HSA). Cells were resuspended in assay buffer (cell buffer plus 2 mM IBMX) and adjusted to a cell density of 1 million cells/ml. For measurement, 5 μl cells (final […]) and 5 μL of test compound were added to a 384-well plate, followed by incubation for 30 minutes at room temperature.
The CAMP content of cells was determined using a kit from Cisbio Corp. (cat. no. 62AM4PEC) based on HTRF (Homogenous Time Resolved Fluorescence). After addition of HTRF reagents diluted in lysis buffer (kit components), the plates were incubated for 1 h, followed by measurement of the fluorescence ratio at 665/620 nm. The percent activity value (E %) was calculated by setting 1000 nM of urocortin 2 (UCN2) as 100%. The in vitro potency of the compounds was quantified by determining the concentrations that caused 50% activation of maximal response (EC50).

**Q.** For CC[C@H](C)[C@H](N)C(=O)N[C@H](C(=O)N[C@@H](CC(C)C)C(=O)N[C@@H](CO)C(=O)N[C@@H](CC(C)C)C(=O)N[C@@H](CC(=O)O)C(=O)N[C@H](C(=O)N1CCC[C@H]1C(=O)N[C@H](C(=O)N[C@@H](CCCCN)C(=O)N[C@@H](CC(C)C)C(=O)N[C@@H](CCCCNC(=O)COCCOCCNC(=O)COCCOCCNC(=O)CC[C@H](NC(=O)CCCCCCCCCCCCCCCCC(=O)O)C(=O)O)C(=O)N[C@@H](CCC(N)=O)C(=O)N[C@H](C(=O)N[C@@H](CC(C)C)C(=O)N[C@@H](CC(C)C)C(=O)N[C@@H](CCC(=O)O)C(=O)N[C@@H](CCC(N)=O)C(=O)N[C@@H](CCC(=O)O)C(=O)N[C@@H](CCCNC(=N)N)C(=O)N[C@@H](CCC(N)=O)C(=O)N[C@@H](CCCNC(=N)N)C(=O)NC(C)(C)C(=O)N[C@@H](CCC(=O)O)C(=O)N[C@@H](CCCNC(=N)N)C(=O)N[C@@H](CCC(N)=O)C(=O)N[C@@H](CCC(N)=O)C(=O)N[C@@H](C)C(=O)N[C@@H](CCC(=O)O)C(=O)N[C@@H](CCCCN)C(=O)N[C@@H](CC(N)=O)C(=O)N[C@H](C(=O)N[C@@H](CCCNC(=N)N)C(=O)N[C@H](C(=O)N[C@@H](CC(C)C)C(=O)N[C@@H](CCC(=O)O)C(=O)N[C@@H](CCCNC(=N)N)C(=O)N[C@H](C(N)=O)C(C)C)[C@@H](C)CC)C(C)C)[C@@H](C)CC)[C@@H](C)CC)C(C)C)C(C)C [compound 42] (H-IVLSLDVPIKLK([AEEA-AEEA-γGlu-C18 diacid])QILLEQERQR[Aib]ERQQAEKNVRILERV-NH2), which EC50 is on record?
**A.** Its EC50 is 15.4 nM.

**Q.** Which EC50 does the source give for CC[C@H](C)[C@H](N)C(=O)N[C@H](C(=O)N[C@@H](CC(C)C)C(=O)N[C@@H](CO)C(=O)N[C@@H](CC(C)C)C(=O)N[C@@H](CC(=O)O)C(=O)N[C@H](C(=O)N1CCC[C@H]1C(=O)N[C@H](C(=O)N[C@@H](CCCCN)C(=O)N[C@@H](CC(C)C)C(=O)N[C@@H](CCCCNC(=O)COCCOCCNC(=O)COCCOCCNC(=O)CC[C@H](NC(=O)CCCCCCCCCCCCCCCCC(=O)O)C(=O)O)C(=O)N[C@@H](CCC(N)=O)C(=O)N[C@H](C(=O)N[C@@H](CC(C)C)C(=O)N[C@@H](CC(C)C)C(=O)N[C@@H](CCC(=O)O)C(=O)N[C@@H](CCC(N)=O)C(=O)N[C@@H](C)C(=O)N[C@@H](CCCCN)C(=O)N[C@@H](CCC(N)=O)C(=O)N[C@@H](CCCCN)C(=O)N[C@@H](CCCCN)C(=O)N[C@@H](CCC(=O)O)C(=O)N[C@@H](CCCNC(=N)N)C(=O)N[C@@H](C)C(=O)N[C@@H](CCC(N)=O)C(=O)N[C@@H](C)C(=O)N[C@@H](CCC(=O)O)C(=O)N[C@H](C(=O)N[C@@H](CC(N)=O)C(=O)N[C@H](C(=O)N[C@@H](CCCNC(=N)N)C(=O)N[C@H](C(=O)N[C@@H](CC(C)C)C(=O)N[C@@H](CCC(=O)O)C(=O)N[C@@H](CCCNC(=N)N)C(=O)N[C@H](C(N)=O)C(C)C)[C@@H](C)CC)C(C)C)[C@@H](C)O)[C@@H](C)CC)[C@@H](C)CC)C(C)C)C(C)C [compound 44] (H-IVLSLDVPIKLK([AEEA-AEEA-γGlu-C18 diacid])QILLEQAKQKKERAQAETNVRILERV-NH2) here?
**A.** The EC50 was 13.7 nM.

**Q.** Which EC50 does the source give for CC[C@H](C)[C@H](N)C(=O)N[C@H](C(=O)N[C@@H](CC(C)C)C(=O)N[C@@H](CO)C(=O)N[C@@H](CC(C)C)C(=O)N[C@@H](CC(=O)O)C(=O)N[C@H](C(=O)N1CCC[C@H]1C(=O)N[C@H](C(=O)N[C@@H](CCCCN)C(=O)N[C@@H](CC(C)C)C(=O)N[C@@H](CCCCNC(=O)COCCOCCNC(=O)COCCOCCNC(=O)CC[C@H](NC(=O)CCCCCCCCCCCCCCCCC(=O)O)C(=O)O)C(=O)N[C@@H](CCC(N)=O)C(=O)N[C@H](C(=O)N[C@@H](CC(C)C)C(=O)N[C@@H](CC(C)C)C(=O)N[C@@H](CCC(=O)O)C(=O)N[C@@H](CCC(N)=O)C(=O)N[C@@H](CCC(=O)O)C(=O)N[C@@H](CCCNC(=N)N)C(=O)N[C@@H](CCC(N)=O)C(=O)N[C@@H](CCCNC(=N)N)C(=O)NC(C)(C)C(=O)N[C@@H](CCC(=O)O)C(=O)N[C@@H](CCCNC(=N)N)C(=O)N[C@@H](CCC(N)=O)C(=O)N[C@@H](CCC(N)=O)C(=O)N[C@@H](C)C(=O)N[C@@H](CCC(=O)O)C(=O)N[C@H](C(=O)N[C@@H](CC(N)=O)C(=O)N[C@H](C(=O)N[C@@H](CCC(N)=O)C(=O)N[C@H](C(=O)N[C@@H](CC(C)C)C(=O)N[C@@H](C)C(=O)N[C@@H](CCC(N)=O)C(=O)N[C@H](C(N)=O)C(C)C)[C@@H](C)CC)C(C)C)[C@@H](C)O)[C@@H](C)CC)[C@@H](C)CC)C(C)C)C(C)C [compound 48] (H-IVLSLDVPIKLK([AEEA-AEEA-γGlu-C18 diacid])QILLEQERQR[Aib]ERQQAETNVQILAQV-NH2; N-terminus assumed) here?
**A.** Its EC50 is 2.2 nM.

**Q.** How did the EC50 turn out when CC[C@H](C)[C@H](N)C(=O)N[C@H](C(=O)N[C@@H](CC(C)C)C(=O)N[C@@H](CO)C(=O)N[C@@H](CC(C)C)C(=O)N[C@@H](CC(=O)O)C(=O)N[C@H](C(=O)N1CCC[C@H]1C(=O)N[C@H](C(=O)N[C@@H](CCCCN)C(=O)N[C@@H](CC(C)C)C(=O)N[C@@H](CCCCNC(=O)COCCOCCNC(=O)COCCOCCNC(=O)CC[C@H](NC(=O)CCCCCCCCCCCCCCCCC(=O)O)C(=O)O)C(=O)N[C@@H](CCC(N)=O)C(=O)N[C@H](C(=O)N[C@@H](CC(C)C)C(=O)N[C@@H](CC(C)C)C(=O)N[C@@H](CCC(=O)O)C(=O)N[C@@H](CCC(N)=O)C(=O)N[C@@H](CCC(=O)O)C(=O)N[C@@H](CCCNC(=N)N)C(=O)N[C@@H](CCC(N)=O)C(=O)N[C@@H](CCCNC(=N)N)C(=O)NC(C)(C)C(=O)N[C@@H](CCC(=O)O)C(=O)N[C@@H](CCCNC(=N)N)C(=O)N[C@@H](CCC(N)=O)C(=O)N[C@@H](CCC(N)=O)C(=O)N[C@@H](C)C(=O)N[C@@H](CCC(=O)O)C(=O)N[C@H](C(=O)N[C@@H](CC(N)=O)C(=O)N[C@H](C(=O)N[C@@H](CCCNC(=N)N)C(=O)N[C@H](C(=O)N[C@@H](CC(C)C)C(=O)N[C@@H](CCC(=O)O)C(=O)N[C@@H](CCCNC(=N)N)C(=O)N[C@H](C(N)=O)C(C)C)[C@@H](C)CC)C(C)C)[C@@H](C)O)[C@@H](C)CC)[C@@H](C)CC)C(C)C)C(C)C [compound 49] (H-IVLSLDVPIKLK([AEEA-AEEA-γGlu-C18 diacid])QILLEQERQR[Aib]ERQQAETNVRILERV-NH2; N-terminus assumed) was run?
**A.** Its EC50 is 12.7 nM.

**Q.** Which EC50 does the source give for CC[C@H](C)[C@H](N)C(=O)N[C@H](C(=O)N[C@@H](CC(C)C)C(=O)N[C@@H](CO)C(=O)N[C@@H](CC(C)C)C(=O)N[C@@H](CC(=O)O)C(=O)N[C@H](C(=O)N1CCC[C@H]1C(=O)N[C@H](C(=O)N[C@@H](CCCCN)C(=O)N[C@@H](CC(C)C)C(=O)N[C@@H](CCCCNC(=O)COCCOCCNC(=O)COCCOCCNC(=O)CC[C@H](NC(=O)CCCCCCCCCCCCCCCCC(=O)O)C(=O)O)C(=O)N[C@@H](CCC(N)=O)C(=O)N[C@H](C(=O)N[C@@H](CC(C)C)C(=O)N[C@@H](CC(C)C)C(=O)N[C@@H](CCCCN)C(=O)N[C@@H](CCC(N)=O)C(=O)N[C@@H](CCC(=O)O)C(=O)N[C@@H](CCCNC(=N)N)C(=O)N[C@@H](CCC(N)=O)C(=O)N[C@@H](CCCNC(=N)N)C(=O)NC(C)(C)C(=O)N[C@@H](CCC(=O)O)C(=O)N[C@@H](CCCNC(=N)N)C(=O)N[C@@H](CCC(N)=O)C(=O)N[C@@H](CCC(N)=O)C(=O)N[C@@H](C)C(=O)N[C@@H](CCC(=O)O)C(=O)N[C@H](C(=O)N[C@@H](CC(N)=O)C(=O)N[C@H](C(=O)N[C@@H](CCCNC(=N)N)C(=O)N[C@H](C(=O)N[C@@H](CC(C)C)C(=O)N[C@@H](CCC(=O)O)C(=O)N[C@@H](CCCNC(=N)N)C(=O)N[C@H](C(N)=O)C(C)C)[C@@H](C)CC)C(C)C)[C@@H](C)O)[C@@H](C)CC)[C@@H](C)O)C(C)C)C(C)C [compound 50] (H-IVLSLDVPTKLK([AEEA-AEEA-γGlu-C18 diacid])QILLKQERQR[Aib]ERQQAETNVRILERV-NH2; N-terminus assumed) here?
**A.** Its EC50 is 17.2 nM.
